The test system of this assay is StpC. Put plainly: Residual proteolytic activity of culture media with E-64 (Hide Powder Azure). It counts as biochemical. Conditions: E-64 at 0.01, 0.1 and 1.0 mM in S. aureus CH-91 culture (TSB, 37 °C), 0.1 M Tris–HCl pH 7.5, 5 mM cysteine, 5 mM EDTA. The procedure:
S. aureus CH-91 was cultured at 37 °C in TSB supplemented with the cysteine peptidase inhibitor E-64 (1-[N-[(L-3-trans-carboxyoxirane-2-carbonyl)-L-leucyl] amino]-4-guanidinobutane; Sigma) at final concentrations of 1.0, 0.1, and 0.01 mM. Aliquots were removed at 5, 10, and 24 h, and the bacteria-free supernatants were obtained by centrifugation.
The residual proteolytic activity of collected culture media was determined at 37 °C using Hide Powder Azure (Calbiochem) in 0.1 M Tris–HCl (pH 7.5) supplemented with 5 mM cysteine and 5 mM EDTA.

`CC(C)C[C@H](NC(=O)[C@H]1O[C@@H]1C(=O)O)C(=O)NCCCCNC(=N)N` (relative stereo) [E-64, 1-[N-[(L-3-trans-carboxyoxirane-2-carbonyl)-L-leucyl]amino]-4-guanidinobutane]: the “residual proteolytic activity in culture media containing the inhibitor” value is “No residual proteolytic activity was detected”.

Values taken from article PMC3724985, “Isolation, biochemical characterization, and cloning of a bacteriocin from the poultry-associated Staphylococcus aureus strain CH-91” (Applied Microbiology and Biotechnology, 2012).
